Laboratory results taken from patent US20100137312A1, “NOVEL AROMATIC HETEROCYCLIC CARBOXYLIC ACID AMIDE DERIVATIVES USEFUL AS POTASSIUM CHANNEL MODULATORS” (neuroSearch A/S, priority 2007, published 2010).

What was measured:
[1] = molecular target: T1, BK channels heterologously expressed in Xenopus laevis oocytes (Homo sapiens, UniProt Q12791); assay: BK channel opening activity, two-electrode voltage clamp, left-shift of the BK activation curve; type: cell-based; conditions: 0.01-31.6 μM compound, sigmoidal logistic fit; for EC50: ΔV at control conductance level of +100 mV, read-out: EC50 for the left-shift of the BK activation curve (ΔV vs. concentration)
T1 construct: expressed in transfected cells; host or cells: Xenopus laevis oocytes
Experimental: In this example the BK channel opening activity of Compound 2 (FIGS. 1A and 1B), Compound 1 (FIGS. 2A and 2B) and Compound 9 (FIGS. 3A and 3B) is determined using BK channels heterologously expressed in Xenopus laevis oocytes.
The electrical current through the BK channel is measured using conventional two-electrode voltage clamp. BK currents are activated by repeating ramp protocols. In brief, the membrane potential is continuously changed from −120 mV to +120 mV within 2 s. The threshold for BK activation is approximately +30 mV under control conditions. Compounds are applies for 100 s during which the ramp protocol is repeated 10 times with 10 s intervals. In between the ramp protocols the membrane potential is clamped at −80 mV. The first three compound applications are control blanks where the current level is allowed to stabilize. In the subsequent 8 applications increasing concentrations (0.01-31.6 μM) of compound is applied and a marked increase in the current level at depolarizing potentials is observed.
In order to evaluate the ability of the compounds to shift the BK activation curve towards lower membrane potentials, the BK current was transformed into conductance by using Ohm's law g=I/(Ememb−Erev), where g is the conductance, I is the current, Ememb is the membrane potential and Erev is the reversal potential. The extracellular solution for these experiments contains 2.5 mM K^+and the intracellular K^+concentration of an oocyte is estimated to be 100 mM. Under those conditions, Nernst equation predicts a reversal potential of Erev=−93.2 mV. The control conductance level at a membrane potential of +100 mV was calculated, and the compound effect was evaluated as the potential difference, ΔV, to the membrane potential at which the same conductance level was obtained in the presence of compound.
The concentration response curve for this potential difference was fitted to the sigmoidal logistic equation: ΔV=ΔVmax/(1+(EC50/[compound])^n), where ΔVmax represents the maximal left shift of the BK activation curve, EC50 is the concentration causing a half maximal response, and n is the slope coefficient.

T1 sequence (Q12791 whole entry): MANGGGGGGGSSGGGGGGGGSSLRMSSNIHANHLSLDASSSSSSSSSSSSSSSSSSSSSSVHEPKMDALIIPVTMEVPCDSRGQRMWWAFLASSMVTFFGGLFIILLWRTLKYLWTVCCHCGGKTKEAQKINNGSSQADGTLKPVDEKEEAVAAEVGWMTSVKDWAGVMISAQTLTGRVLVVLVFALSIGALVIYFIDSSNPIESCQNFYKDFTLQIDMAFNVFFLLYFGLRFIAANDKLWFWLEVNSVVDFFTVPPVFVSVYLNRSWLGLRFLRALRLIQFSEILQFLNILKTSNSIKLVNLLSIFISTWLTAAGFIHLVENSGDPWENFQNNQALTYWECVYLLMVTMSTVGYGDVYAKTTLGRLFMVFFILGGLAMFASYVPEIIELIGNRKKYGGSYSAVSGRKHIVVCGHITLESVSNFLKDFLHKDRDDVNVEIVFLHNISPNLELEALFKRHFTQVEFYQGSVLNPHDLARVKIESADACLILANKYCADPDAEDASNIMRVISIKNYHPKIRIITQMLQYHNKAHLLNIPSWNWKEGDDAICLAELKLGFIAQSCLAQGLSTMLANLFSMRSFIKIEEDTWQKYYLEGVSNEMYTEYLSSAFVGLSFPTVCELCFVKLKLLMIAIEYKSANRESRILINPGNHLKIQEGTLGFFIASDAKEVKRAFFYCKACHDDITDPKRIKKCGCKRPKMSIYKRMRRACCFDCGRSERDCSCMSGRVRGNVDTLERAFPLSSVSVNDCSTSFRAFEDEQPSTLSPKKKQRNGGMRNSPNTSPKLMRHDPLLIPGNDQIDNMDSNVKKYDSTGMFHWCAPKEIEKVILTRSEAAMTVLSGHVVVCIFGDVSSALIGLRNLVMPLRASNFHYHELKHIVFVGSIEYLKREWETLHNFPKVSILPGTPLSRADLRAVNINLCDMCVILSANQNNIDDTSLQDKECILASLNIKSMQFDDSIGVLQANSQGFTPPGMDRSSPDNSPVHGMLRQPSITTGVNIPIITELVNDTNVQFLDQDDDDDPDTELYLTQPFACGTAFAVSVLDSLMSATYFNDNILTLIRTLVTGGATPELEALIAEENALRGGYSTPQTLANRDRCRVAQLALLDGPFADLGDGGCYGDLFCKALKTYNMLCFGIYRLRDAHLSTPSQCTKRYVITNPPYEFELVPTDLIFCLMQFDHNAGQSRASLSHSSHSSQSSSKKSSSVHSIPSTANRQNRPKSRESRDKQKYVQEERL

maximal left-shift of the BK activation curve (ΔVmax) [1] [mV] | EC50 [1] [nM] | melting point [°C] | SMILES
−88 | 4400 | – | O=C(Nc1cc(Cl)ccc1-c1nnn[nH]1)c1cc(-c2ccc(Cl)cc2)oc1C(F)(F)F [Compound 1, 5-(4-Chloro-phenyl)-2-trifluoromethyl-furan-3-carboxylic acid [5-chloro-2-(1H-tetrazol-5-yl)-phenyl]-amide]
−94 | 2400 | 176.3 to 180.4 | O=C(Nc1cc(Cl)ccc1-c1nnn[nH]1)c1cnn(-c2ccc(Cl)cc2)c1C(F)(F)F [Compound 2, 1-(4-Chloro-phenyl)-5-trifluoromethyl-1H-pyrazole-4-carboxylic acid [5-chloro-2-(1H-tetrazol-5-yl)-phenyl]-amide]
– | – | 259 to 262 | CS(=O)(=O)NC(=O)c1ccc(Cl)cc1NC(=O)c1cc(-c2ccc(Cl)cc2)oc1C(F)(F)F [Compound 5, 5-(4-Chloro-phenyl)-2-trifluoromethyl-furan-3-carboxylic acid (5-chloro-2-methanesulfonylaminocarbonyl-phenyl)-amide]
– | – | 226.9 to 236.1 | O=C(Nc1cc(Cl)ccc1OCc1nnn[nH]1)c1cc(-c2ccc(Cl)cc2)oc1C(F)(F)F [Compound 7, 5-(4-Chloro-phenyl)-2-trifluoromethyl-furan-3-carboxylic acid [5-chloro-2-(1H-tetrazol-5-ylmethoxy)-phenyl]-amide]
−99 | 970 | 325 to 337.2 | Cc1nc(-c2ccc(C(F)(F)F)cc2)sc1C(=O)Nc1cc(Cl)ccc1-c1nnn[nH]1 [Compound 9, 4-Methyl-2-(4-trifluoromethyl-phenyl)-thiazole-5-carboxylic acid [5-chloro-2-(1H-tetrazol-5-yl)-phenyl]-amide]
– | – | 246.7 to 255.4 | Cc1oc(-c2ccc(Cl)cc2)cc1C(=O)Nc1cc(Cl)ccc1-c1nnn[nH]1 [Compound 12, 5-(4-Chloro-phenyl)-2-methyl-furan-3-carboxylic acid [5-chloro-2-(1H-tetrazol-5-yl)-phenyl]-amide]
– | – | 337.2 to 340.2 | O=C(O)c1cc(F)c(F)cc1NC(=O)c1cc(-c2ccc(Cl)cc2)oc1C(F)(F)F [Compound 13, 2-{[5-(4-Chloro-phenyl)-2-trifluoromethyl-furan-3-carbonyl]-amino}-4,5-difluoro-benzoic acid]
– | – | 248.1 to 250.9 | Cc1oc(-c2ccc(Cl)cc2)cc1C(=O)Nc1cc(Cl)ccc1-c1noc(=O)[nH]1 [Compound 20, 5-(4-Chloro-phenyl)-2-methyl-furan-3-carboxylic acid [5-chloro-2-(5-oxo-4,5-dihydro-[1,2,4]oxadiazol-3-yl)-phenyl]-amide]
